Experimental data as given in patent US20050288310A1, “Methods of treating cellular proliferative disease using naphthalimide and PARP-1 inhibitors” (priority 2004, published 2005).

Experiments:
RIF-1 tumors = test: Murine tumor growth delay model (RIF-1 tumors in C3H mice); conditions: same doses, IP; for Median (days to 4×): median tumor volume quadrupling time; for T/C (tumor growth delay ratio): ratio of 4× growth times of treated and untreated control tumors; for Delay (tumor growth delay): versus untreated control
Experimental: C3H mice were inoculated subcutaneously in the flank with 2×10^5 radiation-induced fibrosarcoma cells (RIF-1) to produce experimental tumors. When tumors reached ˜100 mm^3, test compounds (100 uL) were administered intraperitoneally (IP).
Single compound groups received either amonafide (60 mg/kg), caffeine (75 mg/kg), or nicotinamide (1000 mg/kg).
Combination groups received amonafide (60 mg/kg), in combination with either caffeine (75 mg/kg), or nicotinamide (1000 mg/kg).
All compounds were administered at the same concentration as the combination groups (amonafide (60 mg/kg), caffeine (75 mg/kg), nicotinamide (1000 mg/kg). Sequential groups included one group treated with amonafide followed by treatment with caffeine, one group treated with caffeine followed by treatment with amonafide, one group treated with amonafide followed by treatment with nicotinamide, and one group treated with nicotinamide followed by treatment with amonafide.
Four mice were used in each treatment group.
Tumors were measured 3 times a week using Vernier calipers, and tumor volume (V) was calculated according to the formula: [formula]
Where D1-3 are perpendicular diameters measured in millimeters (mm).
Tumor volume quadrupling time was defined as the time (days) for treated and untreated tumors to grow to four times (4×) their initial treatment volume. Tumor growth delay ratio (T/C) was defined as the ratio of 4× growth times of treated (T) and untreated control (C) tumors.

Solubility = format: physicochemical

SMILES	Median (days to 4×) (RIF-1 tumors)	T/C (tumor growth delay ratio) (RIF-1 tumors)	Delay (tumor growth delay) (RIF-1 tumors)	Solubility in water compared to monohydrochloride salt (Solubility)	Solubility in saline (Solubility; at therapeutic concentrations)
Cn1c(=O)c2c(ncn2C)n(C)c1=O [Caffeine, caffeine]	5.5	1.2	1.01		
NC(=O)c1cccnc1 [Nicotinamide, nicotinamide]	5.3	1.1	0.76		
CN(C)CCN1C(=O)c2cccc3cc(N)cc(c23)C1=O [Amonafide, 5-amino-2-[(dimethylamine)ethyl]-1H-benz[de-]isoquinoline-1,3-(2H)-dione]	7.5	1.6	2.97	more soluble in water	soluble in saline at therapeutic concentrations
